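Each compound was tested at five concentrations against cells in 96-well plates for 48 hours. At the GI50, growth is halved. TGI: concentration producing complete growth inhibition.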
Experiments:
Experiment in all cases: inhibition of tumour cell growth, NCI panel, 48 h; in the data active = GI50 below about 0.43 µM; inactive = the rest
RPMI-8226 leukemia = tested on: RPMI-8226 leukemia
HS 578T breast = tested on: HS 578T breast
COLO 205 colon = tested on: COLO 205 colon
MDA-MB-231 breast = tested on: MDA-MB-231 breast
SNB-75 CNS = tested on: SNB-75 CNS
SF-268 CNS = tested on: SF-268 CNS
CAKI-1 renal = tested on: CAKI-1 renal
OVCAR-5 ovarian = tested on: OVCAR-5 ovarian
OVCAR-8 ovarian = tested on: OVCAR-8 ovarian
NCI-H23 lung = tested on: NCI-H23 lung
HCT-15 colon = tested on: HCT-15 colon
SNB-19 CNS = tested on: SNB-19 CNS
OVCAR-4 ovarian = tested on: OVCAR-4 ovarian
SK-OV-3 ovarian = tested on: SK-OV-3 ovarian
UACC-257 melanoma = tested on: UACC-257 melanoma
NCI/ADR-RES ovarian = tested on: NCI/ADR-RES ovarian
OVCAR-3 ovarian = tested on: OVCAR-3 ovarian
M14 melanoma = tested on: M14 melanoma
SR leukemia = tested on: SR leukemia
PC-3 prostate = tested on: PC-3 prostate
SN12C renal = tested on: SN12C renal
HT29 colon = tested on: HT29 colon
LOX IMVI melanoma = tested on: LOX IMVI melanoma
HCC-2998 colon = tested on: HCC-2998 colon
DU-145 prostate = tested on: DU-145 prostate
RXF 393 renal = tested on: RXF 393 renal
SF-295 CNS = tested on: SF-295 CNS
K-562 leukemia = tested on: K-562 leukemia
EKVX NSCLC = tested on: EKVX NSCLC
MOLT-4 leukemia = tested on: MOLT-4 leukemia
HOP-62 NSCLC = tested on: HOP-62 NSCLC
HCT-116 colon = tested on: HCT-116 colon
BT-549 breast = tested on: BT-549 breast
NCI-H460 lung = tested on: NCI-H460 lung
A549 NSCLC = tested on: A549 NSCLC
MDA-MB-435 = tested on: MDA-MB-435
CCRF-CEM leukemia = tested on: CCRF-CEM leukemia
UACC-62 melanoma = tested on: UACC-62 melanoma
ACHN renal = tested on: ACHN renal
IGROV1 ovarian = tested on: IGROV1 ovarian
A498 renal = tested on: A498 renal
SF-539 CNS = tested on: SF-539 CNS
SK-MEL-5 melanoma = tested on: SK-MEL-5 melanoma
HOP-92 NSCLC = tested on: HOP-92 NSCLC
SW-620 colon = tested on: SW-620 colon
HL-60(TB) leukemia = tested on: HL-60(TB) leukemia
UO-31 renal = tested on: UO-31 renal
KM12 colon = tested on: KM12 colon
786-0 renal = tested on: 786-0 renal
T-47D breast = tested on: T-47D breast
SK-MEL-2 melanoma = tested on: SK-MEL-2 melanoma
MCF7 breast = tested on: MCF7 breast
NCI-H522 lung = tested on: NCI-H522 lung
U251 CNS = tested on: U251 CNS
SK-MEL-28 melanoma = tested on: SK-MEL-28 melanoma
NCI-H226 lung = tested on: NCI-H226 lung
TK-10 renal = tested on: TK-10 renal

O=C(NC1CCCCC1)NS(=O)(=O)c1ccc(-n2nc3c(c2-c2cccs2)Cc2ccccc2-3)cc1
29.6 µM: TGI (HOP-92 NSCLC)
inactive: GI50 (RPMI-8226 leukemia) 10.7 µM | GI50 (HS 578T breast) 37.5 µM | GI50 (COLO 205 colon) 23.3 µM | GI50 (MDA-MB-231 breast) 27.9 µM | GI50 (SNB-75 CNS) 52.5 µM | GI50 (SF-268 CNS) > 100 µM | GI50 (CAKI-1 renal) 16 µM | GI50 (OVCAR-5 ovarian) 26.6 µM | GI50 (OVCAR-8 ovarian) 25.3 µM | GI50 (NCI-H23 lung) 12.8 µM | GI50 (HCT-15 colon) 17.8 µM | GI50 (SNB-19 CNS) 56.8 µM | GI50 (OVCAR-4 ovarian) 27 µM | GI50 (SK-OV-3 ovarian) 44.5 µM | GI50 (UACC-257 melanoma) 24.8 µM | GI50 (NCI/ADR-RES ovarian) 20.4 µM | GI50 (OVCAR-3 ovarian) 24.5 µM | GI50 (M14 melanoma) 64.1 µM | GI50 (SR leukemia) 1.57 µM | GI50 (PC-3 prostate) 14.5 µM | GI50 (SN12C renal) 21.5 µM | GI50 (HT29 colon) 34.3 µM | GI50 (LOX IMVI melanoma) 5.66 µM | GI50 (HCC-2998 colon) 6.63 µM | GI50 (DU-145 prostate) 31.9 µM | GI50 (RXF 393 renal) 29.2 µM | GI50 (SF-295 CNS) 34.9 µM | GI50 (K-562 leukemia) 10 µM | GI50 (EKVX NSCLC) 28.6 µM | GI50 (MOLT-4 leukemia) 4.99 µM | GI50 (HOP-62 NSCLC) > 100 µM | GI50 (HCT-116 colon) 31.7 µM | GI50 (BT-549 breast) 33.7 µM | GI50 (NCI-H460 lung) 93 µM | GI50 (A549 NSCLC) 28 µM | GI50 (MDA-MB-435) 32.5 µM | GI50 (CCRF-CEM leukemia) 1.15 µM | GI50 (UACC-62 melanoma) 19.3 µM | GI50 (ACHN renal) 17.3 µM | GI50 (IGROV1 ovarian) 4.12 µM | GI50 (A498 renal) 57.2 µM | GI50 (SF-539 CNS) 27.6 µM | GI50 (SK-MEL-5 melanoma) 18.7 µM | GI50 (HOP-92 NSCLC) 14.3 µM | GI50 (SW-620 colon) 20.7 µM | GI50 (HL-60(TB) leukemia) 25 µM | GI50 (UO-31 renal) 15.4 µM | GI50 (KM12 colon) 34.9 µM | GI50 (786-0 renal) 32.3 µM | GI50 (T-47D breast) 39.7 µM | GI50 (SK-MEL-2 melanoma) 23.6 µM | GI50 (MCF7 breast) > 100 µM | GI50 (NCI-H522 lung) 12.3 µM | GI50 (U251 CNS) 25.6 µM | GI50 (SK-MEL-28 melanoma) 34.2 µM | GI50 (NCI-H226 lung) 21.3 µM | GI50 (TK-10 renal) 17.5 µM
33.6 µM: TGI (ACHN renal)
65.4 µM: TGI (NCI/ADR-RES ovarian) | TGI (EKVX NSCLC)
48.8 µM: TGI (HL-60(TB) leukemia)
47.7 µM: TGI (SN12C renal)
94.1 µM: TGI (BT-549 breast)
53 µM: TGI (UACC-62 melanoma)
68.6 µM: TGI (OVCAR-5 ovarian)
35 µM: TGI (K-562 leukemia)
84.1 µM: TGI (RXF 393 renal)
64.7 µM: TGI (SK-MEL-2 melanoma)
24.1 µM: TGI (HCC-2998 colon)
44.4 µM: TGI (CAKI-1 renal)
4.01 µM: TGI (SR leukemia)
90.5 µM: TGI (OVCAR-8 ovarian)
30.6 µM: TGI (RPMI-8226 leukemia)
37.8 µM: TGI (MOLT-4 leukemia)
41 µM: TGI (HCT-15 colon)
33.5 µM: TGI (LOX IMVI melanoma)
40.3 µM: TGI (NCI-H522 lung)
> 100 µM: TGI (HS 578T breast) | TGI (MDA-MB-231 breast) | TGI (SNB-75 CNS) | TGI (SF-268 CNS) | TGI (SNB-19 CNS) | TGI (OVCAR-4 ovarian) | TGI (SK-OV-3 ovarian) | TGI (OVCAR-3 ovarian) | TGI (M14 melanoma) | TGI (HT29 colon) | TGI (DU-145 prostate) | TGI (SF-295 CNS) | TGI (HOP-62 NSCLC) | TGI (HCT-116 colon) | TGI (NCI-H460 lung) | TGI (A549 NSCLC) | TGI (MDA-MB-435) | TGI (A498 renal) | TGI (SW-620 colon) | TGI (KM12 colon) | TGI (786-0 renal) | TGI (T-47D breast) | TGI (MCF7 breast) | TGI (U251 CNS) | TGI (SK-MEL-28 melanoma)
64.9 µM: TGI (NCI-H226 lung)
43 µM: TGI (SK-MEL-5 melanoma)
31.7 µM: TGI (PC-3 prostate)
23 µM: TGI (IGROV1 ovarian)
3.79 µM: TGI (CCRF-CEM leukemia)
61.8 µM: TGI (SF-539 CNS)
72.7 µM: TGI (UACC-257 melanoma)
34.9 µM: TGI (TK-10 renal)
39.9 µM: TGI (UO-31 renal)
33.8 µM: TGI (NCI-H23 lung)
51.1 µM: TGI (COLO 205 colon)

— PubChem BioAssay (NCI)
